Experimental data from ChEMBL document CHEMBL1137105, “New N-pyridinyl(methyl)-indolalkanamides acting as topical inflammation inhibitors” (2004).
Active and inactive are the calls of the source. The rule behind the calls is not given here.

Assays:
Mus musculus [1] = assay: inhibition of acute TPA-induced ear swelling in mice on oral administration of 0.1 nmol/kg; type: functional
Mus musculus [2] = assay: inhibition of acute TPA-induced ear swelling in mice upon topical application of 2x 100 ug; type: functional
Mus musculus [3] = assay: Percent inhibition of acute TPA-induced ear swelling in mice upon topical application at 2x 100 ug; type: functional
[4] = Inhibitory dose was determined; type: functional; conditions: read-out: ID50 (the source's name)
Mus musculus [5] = assay: inhibition of acute TPA-induced ear swelling in mice on oral administration of 0.1 nmol/kg; not active; type: functional, organism-based

Row | Compound | inhibition in vivo at 0.0001 µmol/kg (Mus musculus [1]) | Inhibition (Mus musculus [3]) | other results
1 | O=C(CCc1c[nH]c2ccccc12)Nc1ccncc1 | 77% |  | Inhibition (Mus musculus [2]): 38%
2 | Cc1cc(C)nc(NC(=O)CCc2cn(Cc3ccccc3)c3ccccc23)c1 | 61% |  | 
3 | O=C(CCc1cn(Cc2ccc(Cl)cc2)c2ccc(Cl)cc12)NCc1cccnc1 | 84% | 94% | 
4 | Cc1cc(C)nc(NC(=O)/C=C/c2cn(Cc3ccc(F)cc3)c3ccccc23)c1 | 80% | 66% | 
5 | Cc1cc(C)nc(NC(=O)CCc2cn(Cc3ccc(Cl)cc3)c3ccc(Cl)cc23)c1 | 83% | 89% | 
6 | O=C(CCc1cn(Cc2ccccc2)c2ccccc12)NCc1cccnc1 | 70% |  | 
7 | Cc1cc(C)nc(NC(=O)CCc2c[nH]c3ccccc23)c1 | 72% | 66% | 
8 | Cc1cc(C)nc(NC(=O)CCc2cn(Cc3ccc(Cl)cc3)c3ccccc23)c1 | 64% |  | 
9 | O=C(CCn1ccc2ccccc21)Nc1ccncc1 | 77% |  | 
10 | O=C(CCc1cn(Cc2ccc(Cl)cc2)c2ccccc12)NCc1cccnc1 | 92% | 71% | ED50 [4]: 24 µmol/kg
11 | O=C(CCc1cn(Cc2ccccc2)c2ccccc12)Nc1ccncc1 | 84% | 90% | 
12 | O=C(CCc1cn(CCN2CCOCC2)c2ccccc12)Nc1ccncc1 | 63% |  | 
13 | O=C(CCc1c[nH]c2ccccc12)NCc1cccnc1 |  |  | inhibition (Mus musculus [5]): inactive
14 | O=C(CCc1cn(Cc2ccc(Cl)cc2)c2ccc(Cl)cc12)Nc1ccncc1 | 64% |  | 
15 | CC(C)Cc1ccc(C(C)C(=O)O)cc1 (configuration not stated) [IBUPROFEN] | 35% | 59% | 
16 | C[C@@H]1C[C@H]2[C@@H]3CCC4=CC(=O)C=C[C@]4(C)[C@@]3(F)[C@@H](O)C[C@]2(C)[C@@]1(O)C(=O)CO [DEXAMETHASONE] | 82% | 96% | 
17 | O=C(CCc1cn(Cc2ccc(Cl)cc2)c2ccccc12)Nc1ccncc1 | 72% |  | 
